Source: patent US20260207720A1, “COMPOSITIONS AND METHODS FOR TREATING FUNGAL INFECTIONS” (MUCPharm Pty Ltd, priority 2022, published 2026)

Legend:
Format in all cases: cell-based
[1] = tested on: Candida glabrata (clinical isolate); test: Broth dilution susceptibility test, MIC and percent growth (Example 5); conditions: for MIC: 24 hours, 625 nm
Procedure: These experiments were conducted to determine the effect of BromAc alone and in combination with existing antifungal drugs against Candida glabrata (clinical isolate).
A. Preparation of inoculum: • 1. Candida glabrata was grown on Sabouraud dextrose agar (SDA) at 37° C. for 24-48 hrs. • 2. Following this, 5 colonies of 1 mm diameter were picked and suspended in 5 mL sterile saline (0.9% saline) and vortexed for 15 seconds. • 3. Working suspension is prepared as a 1:100 dilution from stock suspension with RPMI 1640 culture medium. • 4. The cell density is adjusted with a spectrophotometer to the transmittance produced by a 0.5 McFarland standard (0.08 to 0.1) OD at 625 nm wavelength.
• 1. For Bromelain, a stock concentration of 1 mg/ml Bromelain solution was prepared in RPMI media and diluted to test concentrations of 62.4, 31.2, 15.6 and 7.8 μg/ml in RPMI 1640 media. • 2. Acetylcysteine stock concentration is 200 mg/ml, diluted to 40, 20, 10, and 5 mg/ml concentrations in RPMI 1640 medium. • 3. These concentrations are prepared at 2× of the required concentrations in the final assay plate.
Antifungal stock concentrations are as follows— • 1. Amphotericin B, Stock concentration: 250 μg/ml in water. • 2. Posaconazole, Original concentration: 300 mg in 16.7 ml, Working stock concentration: 1 mg/ml in DMSO. • 3. Fluconazole, Original concentration: 100 mg in 50 ml, Working stock concentration: 1 mg/ml in DMSO. • 4. The final concentration was prepared in RPMI 1640 media and concentrations range was 0.01-0.5 μg/mL for amphotericin B, 0.01-2 μg/mL for posaconazole and 0.01-64 μg/mL for fluconazole. • 5. These concentrations were prepared at 2× of the required concentrations in the final assay plate.
• 1. Wells of the 96-well plates were inoculated with appropriate concentrations and volumes of drugs. • 2. Sterility control and growth controls are included in each plate. • 3. Each 96-well plate (except the control wells) contains 100 μL of double strength (twice the final antifungal drug) concentrations. • 4. 100 μL of the fungal suspension is added to 96-well plates (except the sterility control wells). • 5. The growth control wells contained 100 μL of sterile drug-free medium and 100 μL of inoculum suspension, while the sterility control wells contained 200 μl of sterile drug-free medium. • 6. Plates are then incubated at 37° C. and read at 625,430, and 530 nm wavelengths. • 7. Data from 24 hours and absorbance at 625 nm were used for analysis.

Fusarium = test: Susceptibility assay of antifungals with BromAc (Example 4); conditions: antifungal in combination with BromAc (5 mg/ml Acetylcysteine+12.5 μg/ml Bromelain) vs alone
Procedure: (§1) The in vitro antifungal properties of Bromelain, Acetylcysteine, BromAc, Amphotericin B, Isavuconazole, Fluconazole and Posaconazole were determined using a broth microdilution method in round bottom 96 well plates in accordance with standard procedures defined by the Clinical Laboratory Standards Institute (CLSI).
(§2) Unless otherwise described, fungal cultures were grown on potato dextrose agar plates at 35° C. until mature (appearance of conidia) and used to prepare suspensions in sterile water. Suspensions were diluted in RPMI 1:60. These suspensions were then added in equal volume to solutions containing the candidate species described above and incubated at 35° C. for 24 hr. Plates were then analysed for fungal growth inhibition and MIC values determined.
(§3) BromAc (5 mg/ml Acetylcysteine+12.5 μg/ml Bromelain) was used in combination with Amphotericin B, Isavuconazole, Posaconazole and Fluconazole. The MIC values of these four antifungal agents against the fungus described below were calculated and compared with their corresponding MIC values in the presence of BromAc, using the standard susceptibility assays described above.
(§4) The fungal strains set out in Table 2, all of which were sourced from a range of clinical isolates from Australian hospitals, were used in these experiments to gain a further understanding of the efficacy of BromAc in combination with Amphotericin B, Isavuconazole, Posaconazole and Fluconazole.

Candida glabrata = test: as above; conditions: for Observed inhibitory effect: antifungal in combination with BromAc (5 mg/ml Acetylcysteine+12.5 μg/ml Bromelain) vs alone; for isolates with more than a 10× increase in sensitivity: antifungal with BromAc
Procedure: as §1, §2, §3, §4

Candida auris = test: as above; conditions: for isolates with more than 10× increase: Candida auris, antifungal with BromAc; for Observed inhibitory effect: Candida aurus, antifungal in combination with BromAc (5 mg/ml Acetylcysteine+12.5 μg/ml Bromelain) vs alone
Procedure: as §1, §2, §3, §4

Cryptococcus = test: as above; conditions: for Observed inhibitory effect: antifungal in combination with BromAc (5 mg/ml Acetylcysteine+12.5 μg/ml Bromelain) vs alone; for isolates with more than 10× increase: antifungal with BromAc
Procedure: as §1, §2, §3, §4

Mucor circinelloides = test: as above; conditions: for Observed inhibitory effect: antifungal in combination with BromAc (5 mg/ml Acetylcysteine+12.5 μg/ml Bromelain) vs alone; for isolates with increased sensitivity: antifungal with BromAc
Procedure: as §1, §2, §3, §4

**Q.** What does the source list for `C[C@@H]1[C@H](O)[C@@H](C)/C=C/C=C/C=C/C=C/C=C/C=C/C=C/[C@H](O[C@@H]2O[C@H](C)[C@@H](O)[C@H](N)[C@@H]2O)C[C@@H]2O[C@](O)(C[C@@H](O)C[C@@H](O)[C@H](O)CC[C@@H](O)C[C@@H](O)CC(=O)O[C@H]1C)C[C@H](O)[C@H]2C(=O)O` [Amphotericin B]?
**A.** MIC ([1]; Nakaseomyces glabratus, measured at 90% growth inhibition): 1 µg/mL; Observed inhibitory effect (Fusarium): No effect; Observed inhibitory effect (Candida glabrata): Strong (Strong = 5-10x (or greater) inhibitory effect); isolates with more than a 10× increase in sensitivity (Candida glabrata): 5 of 5; isolates with more than 10× increase (Candida auris): 2 of 5; Observed inhibitory effect (Candida auris): Moderate (Moderate = 1-5x inhibitory effect); Observed inhibitory effect (Cryptococcus): Strong (Strong = 5-10x (or greater) inhibitory effect); isolates with more than 10× increase (Cryptococcus): 5 of 5; Observed inhibitory effect (Mucor circinelloides): Strong (Strong = 5-10x (or greater) inhibitory effect); isolates with increased sensitivity (Mucor circinelloides): 2 of 2

**Q.** How did the MIC ([1]; Nakaseomyces glabratus, 50% growth inhibition) turn out when `CC[C@@H]([C@H](C)O)n1ncn(-c2ccc(N3CCN(c4ccc(OC[C@@H]5CO[C@@](Cn6cncn6)(c6ccc(F)cc6F)C5)cc4)CC3)cc2)c1=O` [Posaconazole] was run?
**A.** The MIC was 2 µg/mL.

**Q.** What about the inhibition at 2 µg/mL ([1]; Nakaseomyces glabratus, at 2 μg/ml, read-out: decline in C. glabrata viability over the growth control) of the same compound?
**A.** The inhibition at 2 µg/mL was 25%.

**Q.** And the “effect on C. glabrata viability / growth (in words)” value ([1]; at the concentrations tested, FIGS. 3-7)?
**A.** Its value is “weaker antifungal effect”.

**Q.** What about the “effect at lower concentration compared to growth control (in words)” value ([1]; concentrations lower than the MIC) of the same compound?
**A.** Its value is “slight decline”.

**Q.** What about the Observed inhibitory effect (Fusarium) of the same compound?
**A.** The Observed inhibitory effect was “No effect”.

**Q.** What about the Observed inhibitory effect (Candida glabrata) of the same compound?
**A.** Its Observed inhibitory effect is “Strong (Strong = 5-10x (or greater) inhibitory effect)”.

**Q.** And the “isolates with more than a 10× increase in sensitivity” value (Candida glabrata)?
**A.** Its value is 5 of 5.

**Q.** And the “isolates with more than 10× increase” value (Candida auris)?
**A.** Its value is 4 of 5.

**Q.** And the Observed inhibitory effect (Candida auris)?
**A.** The Observed inhibitory effect was “Strong (Strong = 5-10x (or greater) inhibitory effect)”.

**Q.** And the Observed inhibitory effect (Cryptococcus)?
**A.** Its Observed inhibitory effect is “Strong (Strong = 5-10x (or greater) inhibitory effect)”.

**Q.** What about the “isolates with more than 10× increase” value (Cryptococcus) of the same compound?
**A.** Its value is 5 of 5.

**Q.** And the Observed inhibitory effect (Mucor circinelloides)?
**A.** Its Observed inhibitory effect is “Strong (Strong = 5-10x (or greater) inhibitory effect)”.

**Q.** And the “isolates with increased sensitivity” value (Mucor circinelloides)?
**A.** Its value is 1 of 2.
